Here are results for 32 compounds from US20250228835A1, “PYRIDINYLOXYPYRIDINES AND RELATED COMPOUNDS AND THEIR USE IN TREATING MEDICAL CONDITIONS” (Rectify Pharmaceuticals, Inc., priority 2024, published 2025).

For one assay, the target named is T1, ABCB4 WT (Homo sapiens, UniProt P21439).
T1 construct: expressed in transfected cells
Description: ABCB4 WT assay: HiBit protein expression. To be noted: HEK-293 cells stably expressing HiBit-tagged ABCB4 WT; 24 h treatment; top concentration 30 μM; read-out: ABCB4 WT EC50, Emax. Format: cell-based. The text has this:
To assess activity against ABCB4, compounds were screened in an assay measuring protein expression, using cells transfected with cDNA encoding HiBit-tagged ABCB4 wild-type.
(§1) Described here is an assay for measuring the expression of the wild type of human ABCB4 (henceforth referred to as ABCB4 WT) and the use of this assay to measure the efficacy of compounds to increase the expression of ABCB4 WT. The assay was designed to characterize the efficacy and potency of compounds to increase the expression of ABCB4 WT by calculating an Emax and EC50 value. HEK-293 cells stably expressing ABCB4 WT (HEK-293/ABCB4 WT) were used for this assay and were maintained at 37° C. (5% CO2, humidified) in Dulbecco's Modified Eagle Medium (DMEM, Gibco product #12100) supplemented with 10% fetal bovine serum (Biosera product #FB-1058/500), 1% PenStrep (HDB product #15140-122), and 0.5 mg/mL puromycin (Gibco product #A11138-03). For the assay, the HEK-293/ABCB4 WT cells were seeded in white/opaque 384-well plates (Corning product #3570) at 10,000 cells/well in 20 μl growth medium and allowed to settle for 4 hours at 37° C. (5% CO2, humidified). Compound serial dilutions are prepared in DMSO as three hundred times (333×) the final concentration and using a dilution factor of 3 using Bravo (Agilent). After the four-hour incubation period, 60 nL of DMSO solutions are transferred to the assay plate.
(§2) Dose response curves include eleven doses with the top final concentration at 30 μM in 0.3% DMSO. Liquid handling is performed with ECHO 550 Acoustic Liquid Handler (Labcyte). After addition of compound treatment, cells are incubated for 24 hours at 37° C. (5% CO2, humidified). After the 24-hour treatment, plates are allowed to equilibrate to room temperature for 10 minutes. Using Dragonfly Automated Liquid Handler (TTP LabTech), 20 μl of HiBit lytic assay reagent (Promega, product #N3040), which is prepared according to manufacturer's instructions, is added to each well. The plates are rotated at room temperature for 2 minutes and incubated for 1 hour at 25° C. before luminescent signal is acquired using an EnVision Multimode Plate Reader (PerkinElmer).
Results are presented below in Table 5 for ABCB4 WT.
(In general: With HiBiT, luminescence reflects the tagged protein that the partner subunit can reach.)

The next assay addresses T2, ABCD2 WT (Homo sapiens, UniProt Q9UBJ2).
T2 construct: expressed in transfected cells
T2 sequence (Q9UBJ2 1-740): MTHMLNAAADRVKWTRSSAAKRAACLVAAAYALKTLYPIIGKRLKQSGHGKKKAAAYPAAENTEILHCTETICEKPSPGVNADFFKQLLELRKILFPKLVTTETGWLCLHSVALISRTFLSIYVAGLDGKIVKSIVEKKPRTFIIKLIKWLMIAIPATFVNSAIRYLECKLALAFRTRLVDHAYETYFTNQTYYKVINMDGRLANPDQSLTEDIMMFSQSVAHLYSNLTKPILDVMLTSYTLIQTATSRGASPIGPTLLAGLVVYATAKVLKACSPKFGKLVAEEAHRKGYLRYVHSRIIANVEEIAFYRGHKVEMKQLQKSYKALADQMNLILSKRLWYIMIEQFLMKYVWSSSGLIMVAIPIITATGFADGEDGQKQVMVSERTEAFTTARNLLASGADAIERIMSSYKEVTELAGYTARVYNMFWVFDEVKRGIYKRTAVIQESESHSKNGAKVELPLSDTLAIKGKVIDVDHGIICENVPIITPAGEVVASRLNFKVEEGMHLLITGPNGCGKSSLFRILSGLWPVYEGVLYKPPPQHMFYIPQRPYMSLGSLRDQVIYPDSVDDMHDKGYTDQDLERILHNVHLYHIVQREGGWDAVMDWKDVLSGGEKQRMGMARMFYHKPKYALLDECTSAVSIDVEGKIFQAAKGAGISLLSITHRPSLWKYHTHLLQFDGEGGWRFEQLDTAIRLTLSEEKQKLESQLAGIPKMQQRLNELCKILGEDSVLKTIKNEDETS
Put plainly: D2 correction dose-response assay: ABCD2 WT HiBit protein expression. Format: cell-based. To be noted: HEK-293/ABCD2 WT cells, 24 hours treatment, HiBit luminescence; class combines EC50 and Mean MaxAct (fold); read-out: ABCD2 WT EC50, Emax. The method, then: Exemplary compounds were evaluated in a D2 correction dose-response assay.
as §1, with “To assess activity against ABCD2, the compounds were screened in an assay measuring protein expression, using cells transfected with cDNA encoding HiBit-tagged ABCD2 wild-type. Here we describe” for “Described here is”, “ABCD2” for “ABCB4”, “(HEK-293/ABCD2” for “(HEK-293/ABCB4”, “HEK-293/ABCD2” for “HEK-293/ABCB4”
as §2

For orientation: EC50 means the concentration that produces a half-maximal response.

T1 sequence (P21439 whole entry): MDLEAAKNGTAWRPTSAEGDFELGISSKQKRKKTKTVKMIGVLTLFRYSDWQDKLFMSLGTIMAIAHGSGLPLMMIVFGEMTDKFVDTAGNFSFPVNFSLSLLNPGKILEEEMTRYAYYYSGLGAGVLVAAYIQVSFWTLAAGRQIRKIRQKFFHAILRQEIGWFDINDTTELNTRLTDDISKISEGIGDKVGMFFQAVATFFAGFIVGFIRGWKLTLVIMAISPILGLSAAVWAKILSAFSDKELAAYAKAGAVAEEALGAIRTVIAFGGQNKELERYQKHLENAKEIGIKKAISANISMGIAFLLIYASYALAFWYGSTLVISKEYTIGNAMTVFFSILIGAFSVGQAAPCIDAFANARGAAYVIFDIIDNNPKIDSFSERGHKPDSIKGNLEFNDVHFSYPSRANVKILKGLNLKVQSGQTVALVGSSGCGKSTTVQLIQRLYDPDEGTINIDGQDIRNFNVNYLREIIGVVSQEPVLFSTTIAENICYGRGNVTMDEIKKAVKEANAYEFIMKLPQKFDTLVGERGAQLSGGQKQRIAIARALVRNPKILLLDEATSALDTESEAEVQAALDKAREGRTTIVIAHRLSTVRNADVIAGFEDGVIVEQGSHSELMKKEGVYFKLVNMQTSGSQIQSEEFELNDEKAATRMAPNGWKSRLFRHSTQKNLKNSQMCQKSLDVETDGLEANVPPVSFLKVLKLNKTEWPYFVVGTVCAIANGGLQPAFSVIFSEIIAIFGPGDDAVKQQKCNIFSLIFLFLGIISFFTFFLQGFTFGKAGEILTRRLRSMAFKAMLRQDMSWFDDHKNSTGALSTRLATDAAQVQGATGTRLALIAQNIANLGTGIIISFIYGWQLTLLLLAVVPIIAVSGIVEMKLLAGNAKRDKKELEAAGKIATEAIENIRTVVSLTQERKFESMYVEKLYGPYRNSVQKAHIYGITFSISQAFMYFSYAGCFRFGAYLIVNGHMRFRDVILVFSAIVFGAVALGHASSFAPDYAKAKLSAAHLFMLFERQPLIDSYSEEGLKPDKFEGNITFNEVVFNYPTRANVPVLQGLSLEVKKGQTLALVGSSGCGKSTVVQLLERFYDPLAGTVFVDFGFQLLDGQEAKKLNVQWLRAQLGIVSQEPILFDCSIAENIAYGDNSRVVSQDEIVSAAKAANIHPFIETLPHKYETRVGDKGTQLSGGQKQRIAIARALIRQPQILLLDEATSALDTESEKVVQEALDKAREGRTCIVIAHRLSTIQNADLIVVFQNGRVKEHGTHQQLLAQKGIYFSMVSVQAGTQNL

As for `Cc1nc(C(F)F)nc(C2CC2)c1Oc1nc(-c2cncc(C#N)c2)ccc1S(=O)(=O)NC1CC1` [Compound I-314], the EC50 was 1 to 10 µM on ABCB4 WT and > 25 µM at ABCD2 WT.

As for `Cc1cc(C(F)(F)F)nc(C2CC2)c1Oc1nc(-c2cncc(C#N)c2)ccc1NS(C)(=O)=O` [Compound I-163], the EC50 on ABCB4 WT and at ABCD2 WT was < 1 µM in each case.

Consider `Cc1nc(C(F)(F)F)nc(C2CC2)c1Oc1nc(-c2cncc(Cl)c2)ccc1NS(C)(=O)=O` [Compound I-151], for which the EC50 at ABCB4 WT and at ABCD2 WT was < 1 µM each time.

In the case of `Cc1cc(C)c(Oc2nc(-c3cncc(Cl)c3)ccc2S(=O)(=O)N(C)C)c(C)c1` [Compound I-97], the EC50 on ABCB4 WT and on ABCD2 WT was 1 to 10 µM each time.

For `CNS(=O)(=O)c1ccc(-c2cncc(C#N)c2)nc1Oc1c(C)cc(C(F)(F)F)nc1C1CC1` [Compound I-293], the EC50 is < 1 µM on ABCB4 WT and 1 to 10 µM at ABCD2 WT.

`Cc1cc(C(F)(F)F)nc(C2CC2)c1Oc1nc(-c2cncc(C#N)c2)ccc1S(=O)(=O)N1CCOCC1` [Compound I-290]: the figures for the EC50 at ABCB4 WT and at ABCD2 WT were ≥ 25 µM and > 25 µM, respectively.

Consider `Cc1cc(C)c(Oc2nc(-c3cncc(Cl)c3)ccc2S(N)(=O)=O)c(C)c1` [Compound I-100], for which the EC50 was ≥ 25 µM at ABCB4 WT and < 1 µM at ABCD2 WT.

In the case of `Cc1cc(C(F)(F)F)nc(C2CC2)c1Oc1nc(-c2cncc(Cl)c2)ccc1NS(C)(=O)=O` [Compound I-158], the EC50 on ABCB4 WT and on ABCD2 WT was < 1 µM throughout.

For the compound `Cc1nc(N2CC(C#N)C2)nc(C)c1Oc1nc(-c2cncc(C#N)c2)ccc1NS(C)(=O)=O` [Compound I-159], the EC50 at ABCB4 WT and on ABCD2 WT was < 1 µM throughout.

As to `Cc1cc(C)c(Oc2nc(-c3cncc(C#N)c3)ccc2NS(=O)(=O)c2cccnc2)c(C2CC2)n1` [Compound I-147], the EC50 at ABCB4 WT is < 25 µM; at ABCD2 WT, < 1 µM.

In the case of `Cc1cc(C)c(Oc2nc(-c3cncc(Cl)c3)ncc2NS(C)(=O)=O)c(C)c1` [Compound I-9], the EC50 at ABCB4 WT was ≥ 25 µM; on ABCD2 WT it was < 1 µM.

As to `Cc1cc(C(F)(F)F)nc(C2CC2)c1Oc1nc(-c2cncc(C#N)c2)ccc1S(=N)(=O)c1cccnn1` (stereo not shown) [Compound I-296], the EC50 at ABCB4 WT and on ABCD2 WT was < 1 µM each time.

On to `Cc1nc(C2CC2)nc(C2CC2)c1Oc1nc(-c2cncc(C#N)c2)ccc1NS(C)(=O)=O` [Compound I-150], for which the EC50 on ABCB4 WT and on ABCD2 WT was < 1 µM throughout.

Regarding `CNS(=O)(=O)c1ccc(-c2cncc(C#N)c2)nc1Oc1nc(C2CC2)sc1C` [Compound I-308], the EC50 on ABCB4 WT is < 25 µM; at ABCD2 WT, > 25 µM.

On to `Cc1cc(C)c(Oc2nc(-c3cnc(C#N)c(Cl)c3)ccc2NS(C)(=O)=O)c(C)n1` [Compound I-8], for which the EC50 on ABCB4 WT and at ABCD2 WT was < 1 µM each time.

In the case of `Cc1cc(C(F)(F)F)nc(C2CC2)c1Oc1nc(-c2cncc(Cl)c2)ccc1N(C)S(C)(=O)=O` [Compound I-153], the EC50 at ABCB4 WT was ≥ 25 µM; at ABCD2 WT, 1 to 10 µM.

As for `Cc1nc(C)c(Oc2nc(-c3cncc(C#N)c3)ccc2N(C)S(C)(=O)=O)c(C2CC2)n1` [Compound I-157], the values for the EC50 on ABCB4 WT and at ABCD2 WT were < 25 µM and 10 to 25 µM, respectively.

As to `Cc1cc(C(F)(F)F)nc(C2CC2)c1Oc1nc(-c2cncc(C#N)c2)ccc1N(C)S(=O)(=O)C1CC1` [Compound I-139], the EC50 on ABCB4 WT was < 1 µM; on ABCD2 WT, 1 to 10 µM.

On to `Cc1cc(C2CC2)nc(C2CC2)c1Oc1nc(-c2cncc(C#N)c2)ccc1N(C)S(C)(=O)=O` [Compound I-146], for which the EC50 at ABCB4 WT was ≥ 25 µM; on ABCD2 WT, 10 to 25 µM.

With `Cc1nc(C2CC2)cc(C2CC2)c1Oc1nc(-c2cncc(C#N)c2)ccc1NS(C)(=O)=O` [Compound I-162], the EC50 on ABCB4 WT is ≥ 25 µM; at ABCD2 WT, > 25 µM.

For the compound `Cc1cc(C)c(Oc2nc(-c3c[nH]c(=O)c(C#N)c3)ccc2NS(C)(=O)=O)c(C)n1` [Compound I-307], the EC50 at ABCB4 WT is ≥ 25 µM; on ABCD2 WT it was 1 to 10 µM.

Turning to `Cc1cc(C)c(Oc2nc(-c3cncc(Cl)c3)ccc2S(C)(=N)=O)c(C)c1` (stereo not shown) [Compound I-103], the EC50 at ABCB4 WT is < 1 µM; at ABCD2 WT it was 1 to 10 µM.

On to `Cc1nc(C(F)(F)F)nc(C2CC2)c1Oc1nc(-c2cncc(C#N)c2)ccc1NS(C)(=O)=O` [Compound I-145], for which the EC50 on ABCB4 WT and on ABCD2 WT was < 1 µM each time.

For `Cc1cc(C(F)(F)F)nc(C2CC2)c1Oc1nc(-c2cncc(C#N)c2)ccc1S(=O)(=O)Nc1cccnc1` [Compound I-294], the EC50 was 10 to 25 µM at ABCB4 WT and < 1 µM at ABCD2 WT.

In the case of `CCS(=O)(=O)N(C)c1ccc(-c2cncc(C#N)c2)nc1Oc1c(C)cc(C(F)(F)F)nc1C1CC1` [Compound I-148], the EC50 at ABCB4 WT and on ABCD2 WT was < 1 µM in each case.

On to `Cc1cc(C(F)(F)F)nc(C2CC2)c1Oc1nc(-c2cccc(C#N)c2)ccc1S(=N)(=O)C1CC1` (stereo not shown) [Compound I-295], for which the EC50 on ABCB4 WT is ≥ 25 µM; at ABCD2 WT it was 10 to 25 µM.

With `Cc1nc(N2CC3(COC3)C2)nc(C)c1Oc1nc(-c2cncc(C#N)c2)ccc1NS(C)(=O)=O` [Compound I-160], the EC50 at ABCB4 WT is < 25 µM; at ABCD2 WT, > 25 µM.

For the compound `Cc1nc(C(F)(F)F)nc(C2CC2)c1Oc1nc(-c2cncc(C#N)c2)ccc1S(=O)(=O)Nc1cnn(C)c1` [Compound I-309], the EC50 on ABCB4 WT is < 1 µM; at ABCD2 WT it was 1 to 10 µM.

For `Cc1cc(C(F)F)nc(C2CC2)c1Oc1nc(-c2cncc(C#N)c2)ccc1N(C)S(=O)(=O)C1CC1` [Compound I-134], the values for the EC50 on ABCB4 WT and on ABCD2 WT were < 1 µM and 1 to 10 µM, respectively.

Take `CNS(=O)(=O)c1ccc(-c2cncc(C#N)c2)nc1Oc1c(C)cc(C2CC2)nc1C1CC1` [Compound I-298]: the EC50 at ABCB4 WT was ≥ 25 µM; on ABCD2 WT, 1 to 10 µM.

As for `CNS(=O)(=O)c1ccc(-c2cncc(C#N)c2)nc1Oc1nc(C)sc1C1CC1` [Compound I-312], the EC50 at ABCB4 WT is ≥ 25 µM; at ABCD2 WT, > 25 µM.

In the case of `Cc1cc(C(F)(F)F)nc(C2CC2)c1Oc1nc(-c2cncc(C#N)c2)ccc1S(=N)(=O)c1ccccn1` (stereo not shown) [Compound I-302], the EC50 on ABCB4 WT and at ABCD2 WT was 10 to 25 µM each time.
